Values quoted from earlier work, collected in patent publication US5840324A, “Antiparasitic compositions” (Commonwealth Scientific and Industrial Organisation, priority 1993, dated 1998).

How the values were obtained:
[1] = for time of maximum concentration in the bloodstream: after oral administration; for absorption: conventional dosing; for activity of metabolic products: degradation products of absorbed compound

Structure (SMILES)	absorption of ABZ in the abomasum	time of maximum concentration in the bloodstream [1]	absorption [1]	excretion of absorbed drug ([1]; in vivo)	metabolism ([1]; in vivo)	association with plasma albumin (plasma albumin)	retention in the bloodstream at efficacious levels ([1]; against blood-consuming parasites)	dose lost in faeces ([1]; in vivo)	activity of metabolic products [1]
CCCSc1ccc2nc(NC(=O)OC)[nH]c2c1 [ABZ, [5-(propylthio)-1H-benzimidazol-2-yl]carbamic acid methyl ester]	virtually no absorption								
Cl.c1ccc([C@H]2CN3CCSC3=N2)cc1 [Levamisole, (-)-(S)-2,3,5,6-tetrahydro-6-phenylimidazo[2,1-b]thiazole hydrochloride]		2 to 4 h	rapidly absorbed from the rumen	rapidly excreted, predominantly in urine	rapidly metabolised				
Cc1cc(C(C#N)c2ccc(Cl)cc2)c(Cl)cc1NC(=O)c1cc(I)cc(I)c1O (stereo not drawn) [closantel, 5'-chloro-4'-(4-chloro-α-cyanobenzyl)-3,5-diiodosalicyl-o-toluidide]			slowly absorbed			very strongly associate with plasma albumin	3-4 weeks	about 50%	
Cc1ccsc1/C=C/C1=NCCCN1C [morantel, (E)-1,4,5,6-tetrahydro-1-methyl-2-[2-(3-methyl-2-thienyl)vinyl]-pyrimidine]		2 to 4 h	rapidly absorbed from the rumen	rapidly excreted, predominantly in urine	degraded at a rate consistent with first-pass metabolism				completely inactive
CN1CCCN=C1/C=C/c1cccs1 [pyrantel, 1,4,5,6-tetrahydro-1-methyl-2-[(E)-2-(2-thienyl)-vinyl]-pyrimidine-4,4'-methylenebis-(3-hydroxy-2-naphthoate)]		2 to 4 h	rapidly absorbed from the rumen	rapidly excreted, predominantly in urine	degraded at a rate consistent with first-pass metabolism				completely inactive
